# Experimental data taken from patent publication US12037386B2, “Antibodies to PfGARP kill Plasmodium falciparum malaria parasites and protect against infection and severe disease” (priority 2020, dated 2024).
# Read-outs that look alike come from different tables or passages of the source.
# What was measured:
# Ring stage 3D7 parasites = experiment: Food vacuole integrity, Fluo-4-AM confocal microscopy; type: cell-based, Plasmodium falciparum; conditions: 1 μM, positive control, 24 hours
# Procedure: FIG. 17 are images showing that anti-PfGARP disrupts food vacuole integrity. Ring stage 3D7 parasites were treated with pre-immune sera (1:10), 1 μM chloroquine, or anti-PfGARP antisera (1:10) for 24 hours, followed by staining with DAPI and Fluo-4-AM. […] Data are representative of 2 independent experiments.
# The impact of anti-PfGARP antibodies on food vacuole integrity by confocal microscopy was evaluated using the calcium binding dye Fluo-4-AM, which preferentially labels the food vacuole and has been used to distinguish the food vacuole from the endoplasmic reticulum (Zhang, M. et al. Science 360 (2018)).
# The impact of anti-PfGARP antibodies on food vacuole integrity was further evaluated by confocal microscopy using the calcium binding dye Fluo-4-AM, which specifically labels the food vacuole. Ring stage 3D7 parasites were incubated with culture media (negative control), 1 μM chloroquine (positive control), or anti-PfGARP prepared by rPfGARP-A immunization for 24 hours. Parasites were washed with 1×PBS three times and incubated with Fluo-4-AM (a cell-permeable calcium-sensing dye that fluoresces green when bound with Ca^+2) at a final concentration of 2 μM and DAPI for 30 minutes, at 37° C. The parasites were washed with 1×PBS and observed under a fluorescent microscope.
# [1] = tested on: food vacuole of parasites; conditions: cited from earlier work
smiles,measurement,setting,value
CCN(CC)CCCC(C)Nc1ccnc2cc(Cl)ccc12 (stereo not drawn) [chloroquine],food vacuole integrity (Fluo-4-AM redistribution),Ring stage 3D7 parasites,disrupts the food vacuole leading to dispersion of the dye into the parasite's cytosol
same,effect on food vacuole,[1]; high concentrations (3 μM),disrupts the food vacuole membrane
same,effect on food vacuole,[1]; lower concentrations (68 nM),"marked food vacuole swelling, but no extravasation of hemozoin into the cytoplasm"
